From a melting point compilation (Tetko et al.; mined from patent text by program, amines drawn as free bases though some values may be those of a salt)

melting point [°C] | SMILES
198 to 200 | CCOC(=O)c1sc(N)nc1-c1ccc(Cl)cc1
222 to 224 | COC(=O)c1ccc(Cn2c(C(=O)NC(N)=S)cc3cc(C)cc(C)c32)cc1
171 to 172 | O=S1(=O)CCCS(=O)(=O)N1F
107 to 108 | Cc1cccc([N+](=O)[O-])c1-c1c(C)cccc1[N+](=O)[O-]
> 90 | Cc1nc2c(Br)cc(Br)cn2c1C
134 to 136 | OCc1cc(N2CCOCC2)c(F)cn1
124 to 128 | O=C(c1cccs1)c1cnn2c(-c3cccc(NCc4ccco4)c3)ccnc12
193 to 195 | CCOc1cc(OCC(=O)N2CCN(C(=O)OC(C)(C)C)CC2)cc2c1C(=O)N(COC(=O)c1c(Cl)cccc1Cl)S2(=O)=O
169 to 171 | COc1ccc(C2=NN(CCCCOc3ccc(C(=O)O)cc3)C(=O)[C@H]3CC=CC[C@@H]23)cc1Cl (relative stereo)
149 to 150 | O=C(O)COc1ccc(SCc2ccc(OCc3ccc(Cl)cc3Cl)cc2)c2c1CCC2
91 to 92 | CC(C)(C)OC(=O)NCCOc1noc2c(C#N)cccc12
146 to 147 | CC(C)(C)c1cc2c(c(C(C)(C)C)c1)OC(=O)C2c1ccc(F)cc1 (stereo unspecified)
117 | CC(C)(C)NC(=O)C1CCC(c2ccccc2)N1C(=O)CNC(=O)OC(C)(C)C (stereo unspecified)
199 to 200 | O=c1c2cc(F)c(Cl)nc2n(-c2ccccc2F)c(=O)n1OCc1ccccc1
66 to 67 | CC(C)N(Cc1ccc(Cl)c(Cl)c1)S(=O)(=O)c1ccc(Cl)s1
200 to 201 | CN(C)c1cccc2c(S(=O)(=O)NCCCCn3cnc4c(N)nc5ccccc5c43)cccc12
53 to 55 | COC(=O)/C=C(\CCCCc1ccccc1)Sc1ccc(OC)c(OC)c1
227 to 229 | O=C(O)c1csc(Br)n1
123 to 125 | CC(C#N)(C(N)=O)c1cccc(Oc2ccccc2)c1 (stereo unspecified)
159 to 162 | CS(=O)c1cnc2c(c1)CCC(c1ccc(Cl)c(Cl)c1)O2 (stereo unspecified)
74 to 76 | O=S1CCOCC1c1cccnc1 (stereo unspecified)
91 | N#Cc1nn(Cc2ccccc2)c2ccccc12
88 to 91 | O=C1OC(=O)c2cc(Oc3ccc(C(F)(F)F)cc3Cl)ccc21
79.5 to 80.5 | COC(=O)COc1c(F)cc(SCCNS(=O)(=O)c2ccc(Cl)cc2)cc1F

melting point [°C] | SMILES
182 to 184 | Cc1cc2nccc(-c3cccnc3)n2n1
76 to 79 | CC(Cc1ccc(OCCNC(=O)c2ccc(-c3ccccn3)cc2)cc1)(Oc1ccccc1)C(=O)O (stereo unspecified)
256 to 260 | CN(C)C(=O)Nc1ccc(-c2c[nH]c(=O)cn2)cc1
115 to 118 | CCCc1c(OCCCS(=O)(=O)c2ccc(CC(=O)OC)c(Cl)c2Cl)ccc(C(C)=O)c1O
118 to 120 | CCOC(=O)NNC(=O)NCCCl
120 to 125 | Cc1cc(C)c2c(=O)c([N+](=O)[O-])coc2c1
229 to 233 | Cc1nc(-c2ccc(F)cc2)c(-c2ccc(S(C)(=O)=O)cc2)s1
133 to 134 | CCCN(CCC)c1c(CC)nn2c(-c3ccc(N(C)C)cc3Cl)cccc12
214 to 216 | COC1(OC)CN(c2c(F)cc3c(=O)c(C(=O)O)cn(C4CC4)c3c2F)CC1C (stereo unspecified)
185 | N#Cc1ccc(NC2CCN(Cc3cc(F)c(F)c(F)c3)CC2)nn1
93 to 95 | CN=C1SCN(Cc2ccccc2)C(=O)N1C
140 to 142 | O=C(Nc1ccccc1)C1C(=O)Sc2ccccc21 (stereo unspecified)
85 to 87.5 | CC(Oc1ccccc1)C(=O)NCCCCn1cnc2c(N)nc3ccccc3c21 (stereo unspecified)
169 to 172 | O=C(Nc1c([N+](=O)[O-])cnn1-c1c(Cl)cc(C(F)(F)F)cc1Cl)C1CCCO1 (stereo unspecified)
200 to 208 | O=C1N=CNC(O)C1C(=O)Nc1ccccc1 (stereo unspecified)
150 to 151 | CN(C)c1nnc(SCC(=O)C23CC4CC(CC(C4)C2)C3)s1
145 to 153 | COc1ccc(NN=C(Sc2ccc(S(C)(=O)=O)cc2)C(C)=O)cc1
97 to 98 | Cc1cn(-c2ccc(F)cc2)c2ccc(Br)cc12
143 to 145 | O=C(CCCN1CCC2(CC(O)c3cc(F)ccc32)C1)c1ccc(F)cc1 (stereo unspecified)
115 to 117 | CCCCCN1C(=O)C2(COc3ccc(-c4cncnc4)cc32)c2ccccc21 (stereo unspecified)
130 to 132 | CCOC(=O)ON(C(=O)NC)c1cc(Cl)ccc1Cl
155 to 156 | Cc1cc(C(C)(C)C)c(O)c(C)c1COC(=O)c1cccc(C(=O)OCc2c(C)cc(C(C)(C)C)c(O)c2C)c1
243 | N#Cc1c(Cl)c2cc(Cl)ccc2n(Cc2ccccc2)c1=O
218 to 219 | COc1ccc(CCc2nc(C(N)=O)c[nH]2)cc1

melting point [°C] | SMILES
184 to 186 | COC(=O)C=CC(=O)OC(=C1C(=O)N(C(N)=O)c2cc(Cl)c(F)cc21)c1cccs1
133 to 135 | Fc1cccc(C2OC3(CCNCC3)N3CCCCC23)c1 (stereo unspecified)
240 to 244 | Nc1cc(-n2cc(C(=O)O)c(=O)c3cc(F)c(NC4COC4)c(Cl)c32)c(F)cc1F
173 to 176 | CCCc1nc2c(N)nc3cc(-c4cccc(NC(C)=O)c4)ccc3c2s1
98 to 99 | CCc1cccc(CC(=O)O)c1OCCCc1cn(-c2ccc(C(F)(F)F)cn2)nc1C(C)(C)C
61 to 63 | CCOC(=O)c1ccc(F)cn1
74 to 76 | CCOC(=O)CCNC(=O)c1ccc2c(CC)nn(C3CCCC3)c2c1
68 to 69 | CCCCCCCCCCN1CCN(O)C1=O
189 to 190 | O=C(CCC1CCN(Cc2ccccc2)CC1)c1ccc(Nc2ncnc3c2CCC3O)cc1 (stereo unspecified)
77 to 78 | COc1ccc2c(c1)OC(C)(C)CC2=O
147 to 149 | COC(=O)c1ccc(-c2cc(CCNC(C)=O)c3cc(OC)ccc3c2)cc1
209 to 211 | FC(F)(F)c1cc2[nH]c(N3CCN(c4ncccc4Cl)CC3)nc2cc1Cl
202 to 209 | Clc1cc(CCc2ccccn2)c2oc(-c3cnc[nH]3)nc2c1
307 to 309 | CC(=O)OCCn1nc(O)c2[nH]c3cc(Cl)ccc3c(=O)c2c1=O
76.5 to 77.5 | COC(=O)c1cc(CO)cc([N+](=O)[O-])c1
178 to 180 | Cc1ccnc(NC(=O)Nc2cccc3c2C2CCCCN2C3=O)c1 (stereo unspecified)
95 to 105 | Cc1cccc(-c2[nH]c(C(C)C)nc2-c2cccc(-c3ccc([N+](=O)[O-])cc3)c2)n1
109 to 110 | NC(=O)c1cc2ccc(OCC(O)CCl)cc2o1 (stereo unspecified)
162 to 164 | Cc1nn(C)c(C)c1N1CCN(c2c(C)c(C)c3c(c2C)CC(C)(C)O3)CC1
67 | Oc1c(CN2CCCC2)cc(Nc2ccnc3ccccc23)cc1CN1CCCC1
114 to 115 | COC(=O)c1ccc2c(c1)Sc1ccccc1N=C2N1CCOCC1
> 300 | Cc1cc(S)n2nc(N)nc2n1
203 to 204 | O=C(O)c1cn(C2CC2)c2nc(N3CCC(c4ccccn4)C3)c(F)cc2c1=O (stereo unspecified)
126 to 129 | CCCCCS(=O)(=O)NC(=O)CCc1cc(OC(C)C)nn1Cc1ccc(Cl)cc1Cl

melting point [°C] | SMILES
247 | Cn1c(=O)c(C#N)c(N2CCN(C(=O)c3cccs3)CC2)c2ccccc21
212 to 214 | CC1(C)Oc2cc(C#N)sc2[C@@H](N2CCCCC2=O)[C@@H]1O (relative stereo)
205 to 208 | CCNc1ccc(C(=O)Nc2ccc(OC)cc2)c(NC(=O)c2ccc(C(C)(C)C)cc2)c1
97 | CCOc1cc2c(cc1OCC)C(=C(C#N)SCC(O)CN1CCOCC1)NCC2 (stereo unspecified)
95 to 96 | O=C(c1ccccc1)N1CC2CSCC(C2)C1
113 to 114 | CCCCC(CCCc1cccnc1)CC(NS(=O)(=O)c1ccc(Cl)cc1)C(=O)O (stereo unspecified)
213 to 214 | CSN=C1C(=O)N2C(C(=O)OC(c3ccccc3)c3ccccc3)=C(CSc3nnnn3C)CSC12 (stereo unspecified)
64 | COc1ccc(NC(C)c2ccccc2)cc1 (stereo unspecified)
148 to 150 | Cc1cccc(-c2nccc(O)n2)c1
197 to 198 | CSc1nnnc2c1sc1nc(C)ccc12
157 to 158 | CCOC(=O)C(C)(C)Oc1ccc(C(=O)Nc2ccccc2Sc2ccccc2-c2nnn[nH]2)cc1
160 to 162 | C(=C\c1nc(COc2ccc(-n3ccnc3)cc2)co1)/c1ccccc1
111 to 112 | COc1ccc(/C=C(\C#N)Cc2ccccc2)cc1OC1CCCC1
226 to 228 | COc1cc2c(cc1C(F)(F)F)N(C(=O)Nc1cccc(-c3cncnc3)c1)CC2
142 to 144 | c1ccc(C2=NC(c3ccccc3)C3=C(N2)c2nc(-c4ccccc4)cc(-c4ccccc4)c2CC3)cc1 (stereo unspecified)
97 to 100 | O=[N+]([O-])c1cc(Cl)cc(CCc2ccccn2)c1O
138 | COC(=O)c1cc([N+](=O)[O-])c(N2CCSC2=N)c([N+](=O)[O-])c1
135 to 137 | COc1ccc(COC(=O)C2N(c3c(C)cccc3C)C(=N)C(C)N2c2c(C)cccc2C)cc1 (stereo unspecified)
104 to 107 | CN(CC1CCCCN1)C(=O)c1cc(OCC(F)(F)F)ccc1OCC(F)(F)F (stereo unspecified)
106 to 109 | CNc1cc(Oc2ccc(NC(=O)Nc3ccc(-c4cccc(C)n4)c(C(F)(F)F)c3)cc2)ncn1
69 to 71 | COC(=O)c1oc(Cl)nc1C
191 to 193 | CCCCNC(=O)Nc1ccc(OCC)cc1C(=O)NCC1CCN(C(c2ccccc2)c2ccccc2)CC1
128 to 129 | CC(=O)c1cccc(Cl)c1C(=O)O
87 | CCOC(=O)CC(=O)Nc1c(C(=O)OC)cccc1C(F)(F)F

SMILES | melting point [°C]
Nc1cc(OCc2ccccc2)c(C(=O)NC2CN3CCC2CC3)cc1Cl (stereo unspecified) | 170 to 171
CC#Cc1ncn2c1CN(C)C(=O)c1ccccc1-2 | 206 to 207
C[C@H]1[C@@H](O)C(C)(C)C(=O)N1c1ccc(C#N)c(C(F)(F)F)c1 | 120 to 121
Cc1cc(NC2=NCCN2)n(C)n1 | 167 to 169
Cc1nc(C(=O)N(C)C)c2n1-c1ccc(Cl)cc1C(c1ccccc1Cl)=NC2 | 225 to 230
